Data reported in patent US20250320193A1, “OXOISOINDOLINYL SUBSTITUTED PIPERIDINEDIONE DERIVATIVE AND USE THEREOF” (GLUETACS THERAPEUTICS (SHANGHAI) CO., LTD., priority 2022, published 2025).

Columns and labels:
[1] = target: human Cereblon WT GST-tagged protein (Homo sapiens (Human), UniProt Q96SW2); assay: CRBN-binding affinity, HTRF (CEREBLON BINDING kit, CISBIO); conditions: HTRF inhibitory activity
How it was run: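 Compounds were mixed with GST-tagged human Cereblon WT protein, then with Thalidomide-Red tracer and GST Eu antibody, and binding was read by HTRF. Inhibition rate was calculated from 620 nm emission relative to blank control wells (no protein) and solvent control wells.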

[2] = target: IKZF1 (Homo sapiens (Human), UniProt Q13422+Q96SW2); assay: Western blot, substrate protein expression in hPBMC: IKZF1; format: cell-based; conditions: hPBMC, compound 500 nM, 24 hours, Western blot
IKZF1, sequence (Q13422 whole entry): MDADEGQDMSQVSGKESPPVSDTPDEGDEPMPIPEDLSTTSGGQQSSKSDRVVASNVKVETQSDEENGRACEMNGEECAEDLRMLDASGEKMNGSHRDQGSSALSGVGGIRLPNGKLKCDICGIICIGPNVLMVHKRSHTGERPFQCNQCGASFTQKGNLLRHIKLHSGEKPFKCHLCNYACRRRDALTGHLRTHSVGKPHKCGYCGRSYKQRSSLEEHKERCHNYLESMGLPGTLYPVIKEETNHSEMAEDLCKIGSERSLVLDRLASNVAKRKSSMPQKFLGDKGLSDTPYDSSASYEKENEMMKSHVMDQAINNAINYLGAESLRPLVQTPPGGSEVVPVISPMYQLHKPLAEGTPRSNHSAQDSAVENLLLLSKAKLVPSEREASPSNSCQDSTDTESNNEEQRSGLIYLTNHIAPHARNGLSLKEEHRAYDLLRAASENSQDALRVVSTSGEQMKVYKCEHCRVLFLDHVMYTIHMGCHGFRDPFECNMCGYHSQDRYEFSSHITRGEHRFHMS
IKZF1, sequence (Q96SW2 whole entry): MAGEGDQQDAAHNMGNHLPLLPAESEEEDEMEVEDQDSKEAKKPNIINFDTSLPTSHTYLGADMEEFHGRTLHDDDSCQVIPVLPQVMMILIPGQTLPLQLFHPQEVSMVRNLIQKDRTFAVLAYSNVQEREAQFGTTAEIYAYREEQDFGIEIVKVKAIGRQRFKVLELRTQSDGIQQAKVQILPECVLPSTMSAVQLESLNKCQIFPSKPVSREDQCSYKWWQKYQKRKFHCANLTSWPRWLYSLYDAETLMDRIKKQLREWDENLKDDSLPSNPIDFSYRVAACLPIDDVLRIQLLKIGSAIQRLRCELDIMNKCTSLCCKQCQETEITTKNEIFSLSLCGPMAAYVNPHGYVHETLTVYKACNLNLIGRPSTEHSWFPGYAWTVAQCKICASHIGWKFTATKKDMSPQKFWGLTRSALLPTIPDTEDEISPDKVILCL
IKZF1, sequence (Q16531 whole entry partner): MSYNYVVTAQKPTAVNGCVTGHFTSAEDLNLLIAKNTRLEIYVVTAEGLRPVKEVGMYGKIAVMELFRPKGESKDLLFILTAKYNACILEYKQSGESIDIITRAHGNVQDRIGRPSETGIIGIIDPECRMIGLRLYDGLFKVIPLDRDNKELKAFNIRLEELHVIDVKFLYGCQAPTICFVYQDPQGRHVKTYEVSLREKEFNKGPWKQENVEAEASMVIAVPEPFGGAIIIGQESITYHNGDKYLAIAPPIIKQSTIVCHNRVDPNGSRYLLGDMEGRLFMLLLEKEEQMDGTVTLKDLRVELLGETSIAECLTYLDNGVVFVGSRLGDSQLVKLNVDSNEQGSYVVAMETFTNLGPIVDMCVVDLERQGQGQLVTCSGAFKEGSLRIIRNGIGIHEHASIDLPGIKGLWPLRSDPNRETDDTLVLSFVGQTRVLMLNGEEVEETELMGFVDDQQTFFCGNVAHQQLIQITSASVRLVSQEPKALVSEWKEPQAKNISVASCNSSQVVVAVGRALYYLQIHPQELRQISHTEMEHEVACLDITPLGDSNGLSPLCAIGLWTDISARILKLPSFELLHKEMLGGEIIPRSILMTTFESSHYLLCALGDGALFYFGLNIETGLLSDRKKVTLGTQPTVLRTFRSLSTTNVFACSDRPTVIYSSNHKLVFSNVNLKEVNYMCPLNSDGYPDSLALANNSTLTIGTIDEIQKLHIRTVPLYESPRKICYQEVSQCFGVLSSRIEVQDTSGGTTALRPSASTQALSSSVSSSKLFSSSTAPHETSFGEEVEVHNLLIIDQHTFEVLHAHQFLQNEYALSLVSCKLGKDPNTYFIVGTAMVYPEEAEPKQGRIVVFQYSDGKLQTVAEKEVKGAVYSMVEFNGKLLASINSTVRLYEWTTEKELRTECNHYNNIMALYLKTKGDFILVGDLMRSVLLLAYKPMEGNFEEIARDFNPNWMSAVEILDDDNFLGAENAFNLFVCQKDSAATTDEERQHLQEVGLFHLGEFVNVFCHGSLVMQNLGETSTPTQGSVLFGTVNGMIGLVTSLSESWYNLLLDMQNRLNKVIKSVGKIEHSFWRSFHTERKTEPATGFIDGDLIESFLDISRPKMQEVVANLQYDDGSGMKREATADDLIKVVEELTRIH
How it was run: (§1)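 hPBMC, 1×10^6 cells/mL, 24 h compound exposure; RIPA lysis, BCA protein assay, SDS-PAGE, NC membrane immunoblot. Densitometry vs internal control → % protein remaining; degradation % = 100% − remaining; DC50 = conc. at 50% of DMSO band signal.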

[3] = target: GSPT1 (Homo sapiens (Human), UniProt P15170+Q96SW2); assay: Western blot, substrate protein expression in hPBMC: GSPT1; format: cell-based; conditions: hPBMC, compound 500 nM, 24 hours, Western blot
GSPT1, sequence (P15170 whole entry): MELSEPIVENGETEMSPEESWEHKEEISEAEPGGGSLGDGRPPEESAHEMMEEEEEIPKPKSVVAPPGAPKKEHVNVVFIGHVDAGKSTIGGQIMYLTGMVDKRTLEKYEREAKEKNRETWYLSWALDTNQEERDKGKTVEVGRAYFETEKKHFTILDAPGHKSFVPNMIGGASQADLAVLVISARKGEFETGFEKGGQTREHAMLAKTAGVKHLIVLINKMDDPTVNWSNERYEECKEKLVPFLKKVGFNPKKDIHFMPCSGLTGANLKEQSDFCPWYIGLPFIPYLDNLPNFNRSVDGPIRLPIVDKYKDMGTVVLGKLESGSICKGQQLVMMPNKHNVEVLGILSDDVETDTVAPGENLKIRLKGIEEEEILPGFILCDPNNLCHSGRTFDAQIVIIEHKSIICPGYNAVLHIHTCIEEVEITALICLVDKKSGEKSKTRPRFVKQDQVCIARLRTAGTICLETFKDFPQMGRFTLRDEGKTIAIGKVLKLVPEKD
GSPT1, sequence (Q96SW2 whole entry): as the sequence (Q96SW2 whole entry) above
GSPT1, sequence (Q16531 whole entry partner): as the sequence (Q16531 whole entry partner) above
How it was run: as §1

[4] = target: IKZF3 (Homo sapiens (Human), UniProt Q96SW2+Q9UKT9); assay: Western blot, substrate protein expression in hPBMC: IKZF3; format: cell-based; conditions: hPBMC, compound 500 nM, 24 hours, Western blot
IKZF3, sequence (Q9UKT9 whole entry): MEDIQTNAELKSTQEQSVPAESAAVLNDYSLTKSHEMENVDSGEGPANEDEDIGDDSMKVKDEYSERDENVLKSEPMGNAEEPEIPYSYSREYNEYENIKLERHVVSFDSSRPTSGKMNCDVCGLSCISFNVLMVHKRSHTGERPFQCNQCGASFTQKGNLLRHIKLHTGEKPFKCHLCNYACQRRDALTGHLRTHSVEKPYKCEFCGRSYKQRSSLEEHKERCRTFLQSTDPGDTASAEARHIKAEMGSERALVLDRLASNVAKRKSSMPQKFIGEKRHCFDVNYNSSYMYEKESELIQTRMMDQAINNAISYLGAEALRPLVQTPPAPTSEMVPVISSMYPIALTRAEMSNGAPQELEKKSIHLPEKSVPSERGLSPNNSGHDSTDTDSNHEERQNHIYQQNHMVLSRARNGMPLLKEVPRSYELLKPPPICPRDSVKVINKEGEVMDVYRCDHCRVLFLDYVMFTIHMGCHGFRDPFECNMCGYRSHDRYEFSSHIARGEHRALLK
IKZF3, sequence (Q96SW2 whole entry): as the sequence (Q96SW2 whole entry) above
IKZF3, sequence (Q16531 whole entry partner): as the sequence (Q16531 whole entry partner) above
How it was run: as §1

human Cereblon WT GST-tagged protein, sequence (Q96SW2 whole entry): as the sequence (Q96SW2 whole entry) above

IC50 [1] [nM]	SMILES	substrate protein remaining % IKZF1 [2]	substrate protein remaining % GSPT1 [3]	substrate protein remaining % IKZF3 [4]
1000 to 1900	O=C1CCC(N2Cc3cc(C(=O)N4CCN(C(c5ccccc5)c5ccccc5)CC4)cc(F)c3C2=O)C(=O)N1 (centres unmarked) [GT-05850, 3-(5-(4-benzhydrylpiperazine-1-carbonyl)-7-fluoro-1-oxoisoindolin-2-yl)piperidine-2,6-dione]	A (A represents 0% ≤ substrate protein remaining % ≤ 50%)	A (A represents 0% ≤ substrate protein remaining % ≤ 50%)	B (B represents substrate protein remaining % > 50%)
500 to 1000	O=C1CCC(N2Cc3cc(CN4CCN(C(c5ccccc5)c5ccc(Br)cc5)CC4)ccc3C2=O)C(=O)N1 (centres unmarked) [GT-06640, 3-(5-((4-((4-bromophenyl) (phenyl)methyl)piperazin-1-yl)methyl)-1-oxoisoindolin-2-yl)piperidine-2,6-dione]	A (A represents 0% ≤ substrate protein remaining % ≤ 50%)	A (A represents 0% ≤ substrate protein remaining % ≤ 50%)	A (A represents 0% ≤ substrate protein remaining % ≤ 50%)
1000 to 1900	O=C1CCC(N2Cc3cc(CN4CCC5(CCN(C(c6ccccc6)c6ccccc6)CC5)C4)c(F)cc3C2=O)C(=O)N1 (centres unmarked) [GT-05971, 3-(5-((8-benzhydryl-2,8-diazaspiro[4.5]decan-2-yl)methyl)-6-fluoro-1-oxoisoindolin-2-yl)piperidine-2,6-dione]	B (B represents substrate protein remaining % > 50%)	A (A represents 0% ≤ substrate protein remaining % ≤ 50%)	B (B represents substrate protein remaining % > 50%)
1000 to 1900	CC1CN(Cc2cc(F)c3c(c2)CN(C2CCC(=O)NC2=O)C3=O)CC(C)N1C(c1ccccc1)c1ccccc1 (centres unmarked) [GT-05967, 3-(5-((4-benzhydryl-3,5-dimethylpiperazin-1-yl)methyl)-7-fluoro-1-oxoisoindolin-2-yl)piperidine-2,6-dione]	B (B represents substrate protein remaining % > 50%)	A (A represents 0% ≤ substrate protein remaining % ≤ 50%)	A (A represents 0% ≤ substrate protein remaining % ≤ 50%)
1000 to 1900	CC1CN(C(c2ccccc2)c2ccccc2)CC(C)N1C(=O)c1ccc2c(c1)C(=O)N(C1CCC(=O)NC1=O)C2=O (centres unmarked) [GT-05922, 5-(4-benzhydryl-2,6-dimethylpiperazine-1-carbonyl)-2-(2,6-dioxopiperidin-3-yl) isoindoline-1,3-dione]	B (B represents substrate protein remaining % > 50%)	A (A represents 0% ≤ substrate protein remaining % ≤ 50%)	B (B represents substrate protein remaining % > 50%)
500 to 1000	O=C1CCC(N2Cc3cc(C(=O)N4CC5CN(C(c6ccccc6)c6ccccc6)CC5C4)ccc3C2=O)C(=O)N1 (centres unmarked) [GT-06067, 3-(5-(5-benzhydryloctahydropyrrolo[3,4-c]pyrrole-2-carbonyl)-1-oxoisoindolin-2-yl)piperidine-2,6-dione]	B (B represents substrate protein remaining % > 50%)	A (A represents 0% ≤ substrate protein remaining % ≤ 50%)	B (B represents substrate protein remaining % > 50%)
1000 to 1900	O=C1CCC(N2C(=O)c3ccc(C(=O)N4CCN(C(c5cccc(F)c5)c5cccc(F)c5)CC4)cc3C2=O)C(=O)N1 (centres unmarked) [GT-06206, 5-(4-(bis(3-fluorophenyl)methyl)piperazine-1-carbonyl)-2-(2,6-dioxopiperidin-3-yl) isoindoline-1,3-dione]	B (B represents substrate protein remaining % > 50%)	A (A represents 0% ≤ substrate protein remaining % ≤ 50%)	B (B represents substrate protein remaining % > 50%)
< 500	O=C1CCC(N2Cc3c(ccc(CN4CC5CN(C(c6ccccc6)c6ccccc6)CC5C4)c3F)C2=O)C(=O)N1 (centres unmarked) [GT-06044, 3-(5-((5-benzhydrylhexahydropyrrolo[3,4-c]pyrrol-2 (1H)-yl)methyl)-4-fluoro-1-oxoisoindolin-2-yl)piperidine-2,6-dione]	B (B represents substrate protein remaining % > 50%)	A (A represents 0% ≤ substrate protein remaining % ≤ 50%)	A (A represents 0% ≤ substrate protein remaining % ≤ 50%)
500 to 1000	CC1(C)CN(Cc2cc(F)c3c(c2)CN(C2CCC(=O)NC2=O)C3=O)CCN1C(c1ccccc1)c1ccccc1 (centres unmarked) [GT-05961, 3-(5-((4-benzhydryl-3,3-dimethylpiperazin-1-yl)methyl)-7-fluoro-1-oxoisoindolin-2-yl)piperidine-2,6-dione]	B (B represents substrate protein remaining % > 50%)	A (A represents 0% ≤ substrate protein remaining % ≤ 50%)	A (A represents 0% ≤ substrate protein remaining % ≤ 50%)

Further lines, the compound ahead of its results:

SMILES	IC50 [1] [nM]	substrate protein remaining % IKZF1 [2]	substrate protein remaining % GSPT1 [3]	substrate protein remaining % IKZF3 [4]
O=C1CCC(N2Cc3cc(CN4CC5CCC(C4)N5C(c4ccccc4)c4ccccc4)ccc3C2=O)C(=O)N1 (centres unmarked) [GT-03722, 3-(5-((8-benzhydryl-3,8-diazabicyclo[3.2.1]octan-3-yl)methyl)-1-oxoisoindolin-2-yl)piperidine-2,6-dione]	< 500	A (A represents 0% ≤ substrate protein remaining % ≤ 50%)	A (A represents 0% ≤ substrate protein remaining % ≤ 50%)	A (A represents 0% ≤ substrate protein remaining % ≤ 50%)
CC1CN(C(c2ccccc2)c2ccccc2)CC(C)N1Cc1cc2c(cc1F)C(=O)N(C1CCC(=O)NC1=O)C2 (centres unmarked) [GT-03873, 3-(5-((4-benzhydryl-2,6-dimethylpiperazin-1-yl)methyl)-6-fluoro-1-oxoisoindolin-2-yl)piperidine-2,6-dione]	< 500	A (A represents 0% ≤ substrate protein remaining % ≤ 50%)	A (A represents 0% ≤ substrate protein remaining % ≤ 50%)	B (B represents substrate protein remaining % > 50%)
O=C1CCC(N2Cc3cc(CN4CCCN(C(c5ccccc5)c5ccccc5)CC4)ccc3C2=O)C(=O)N1 (centres unmarked) [GT-03994, 3-(5-((4-benzhydryl-1,4-diazepan-1-yl)methyl)-1-oxoisoindolin-2-yl)piperidine-2,6-dione]	< 500	B (B represents substrate protein remaining % > 50%)	A (A represents 0% ≤ substrate protein remaining % ≤ 50%)	B (B represents substrate protein remaining % > 50%)
CC1CN(Cc2ccc3c(c2)CN(C2CCC(=O)NC2=O)C3=O)CC(C)N1C(c1ccccc1)c1ccccc1 (centres unmarked) [GT-03872, 3-(5-((4-benzhydryl-3,5-dimethylpiperazin-1-yl)methyl)-1-oxoisoindolin-2-yl)piperidine-2,6-dione]	1000 to 1900	B (B represents substrate protein remaining % > 50%)	A (A represents 0% ≤ substrate protein remaining % ≤ 50%)	A (A represents 0% ≤ substrate protein remaining % ≤ 50%)
O=C1CCC(N2Cc3cc(CC4CCN(C(c5ccccc5)c5ccccc5)CC4)ccc3C2=O)C(=O)N1 (centres unmarked) [GT-05744, 3-(5-((1-benzhydrylpiperidin-4-yl)methyl)-1-oxoisoindolin-2-yl)piperidine-2,6-dione]	< 500	B (B represents substrate protein remaining % > 50%)	A (A represents 0% ≤ substrate protein remaining % ≤ 50%)	B (B represents substrate protein remaining % > 50%)
O=C1CCC(N2Cc3cc(CN4C[C@H]5C[C@@H]4CN5C(c4ccccc4)c4ccccc4)ccc3C2=O)C(=O)N1 (stereo partly drawn) [GT-03570, 3-(5-(((1R,4R)-5-benzhydryl-2,5-diazabicyclo[2.2.1]heptan-2-yl)methyl)-1-oxoisoindolin-2-yl)piperidine-2,6-dione]	< 500	B (B represents substrate protein remaining % > 50%)	A (A represents 0% ≤ substrate protein remaining % ≤ 50%)	B (B represents substrate protein remaining % > 50%)
O=C1CCC(N2Cc3cc(CN4CC5CCC4CN5C(c4ccccc4)c4ccccc4)ccc3C2=O)C(=O)N1 (centres unmarked) [GT-03993, 3-(5-((5-benzhydryl-2,5-diazabicyclo[2.2.2]octan-2-yl)methyl)-1-oxoisoindolin-2-yl)piperidine-2,6-dione]	< 500	B (B represents substrate protein remaining % > 50%)	A (A represents 0% ≤ substrate protein remaining % ≤ 50%)	A (A represents 0% ≤ substrate protein remaining % ≤ 50%)
O=C1CCC(N2Cc3cc(CN4C[C@@H]5C[C@H]4CN5C(c4ccccc4)c4ccccc4)ccc3C2=O)C(=O)N1 (stereo partly drawn) [GT-03721, 3-(5-(((1S,4S)-5-benzhydryl-2,5-diazabicyclo[2.2.1]heptan-2-yl)methyl)-1-oxoisoindolin-2-yl)piperidine-2,6-dione]	< 500	B (B represents substrate protein remaining % > 50%)	A (A represents 0% ≤ substrate protein remaining % ≤ 50%)	A (A represents 0% ≤ substrate protein remaining % ≤ 50%)
